Test results published in patent US20240208954A1, “OXADIAZOLE COMPOUND, PREPARATION METHOD THEREFOR, PHARMACEUTICAL COMPOSITION AND USE THEREOF” (SHANGHAI INSTITUTE OF MATERIA MEDICA, CHINESE ACADEMY OF …, priority 2020, published 2024).
Where two headings read alike, the source gives them in different places.

What was measured:
S1PR1 = biological target: T1, S1PR1 (Homo sapiens, UniProt P21453); experiment: Agonistic activity test on S1P receptors, FLIPR, CHO-K1/Ga15/EDG1 cells; format: cell-based; details: CHO-K1/Ga15/EDG1 cells, FLIPR agonist mode, read-out: S1PR1 EC50
T1 construct: host or cells: CHO-K1 co-expressing Ga15
Description: (§1) Instrument: FLIPR™ TETRA (Molecular Device)
Experimental materials: CHO-K1/Ga15/EDG1 cells constructed by GenScript autonomously.
(§2) Sample processing: Before the experiment, the working solution with the corresponding concentration was prepared by diluting with GPCR dilution buffer.
(§3) After 18-20 hours, the cell culture plat was taken out and added with dye working solution, and then the plate was placed in a 37° C./5% CO2 incubator for 1 hour, and finally equilibrated at room temperature for 15 minutes. Positive agonist working solution was added, and RFU values were detected and recorded. […] The positive agonist working fluid was added to the cell culture plate at the 21st second. […] The antagonistic mode detection program, the overall detection time of the instrument was 120 seconds, and positive antagonist working solution was added to the cell culture plate at the 21st second.
(§4) Data processing: Raw data were obtained via ScreenWorks (version 3.1) and saved as *FMD files on the Kingsray computer network system. Data were collected and analyzed using Excel and GraphPad Prism 6 software programs. For each well, the average fluorescence intensity value from 1 to 20 seconds was used as the baseline, and the maximum fluorescence intensity value from 21 to 120 seconds minus the minimum fluorescence intensity value from 21 to 120 seconds was the relative fluorescence intensity value (ARFU), from which the percentage activation or inhibition can be calculated based on the following equation.
(§5) % Activation Rate=(ΔRFUCompound-ΔRFUBackground)/(ΔRFUAgonist control-ΔRFUBackground)×100%
(§6) The data was analyzed using GraphPad Prism 6 with a four-parameter equation to calculate the EC50 and IC50 values. The four-parameter equation was as follows: y=Bottom+(Top-Bottom)/(1+10^((LogEC50/IC50-X)*HillSlope)), wherein X is the Log value of the concentration and Y was the inhibition rate.

S1PR3 = S1PR3 (Homo sapiens, UniProt Q99500); experiment: Agonistic activity test on S1P receptors, FLIPR; format: cell-based; details: FLIPR agonist mode; read-out: S1PR3 EC50
Description: as §1, §2, §3, §4, §5, §6

S1PR3, sequence (Q99500 whole entry, species assumed): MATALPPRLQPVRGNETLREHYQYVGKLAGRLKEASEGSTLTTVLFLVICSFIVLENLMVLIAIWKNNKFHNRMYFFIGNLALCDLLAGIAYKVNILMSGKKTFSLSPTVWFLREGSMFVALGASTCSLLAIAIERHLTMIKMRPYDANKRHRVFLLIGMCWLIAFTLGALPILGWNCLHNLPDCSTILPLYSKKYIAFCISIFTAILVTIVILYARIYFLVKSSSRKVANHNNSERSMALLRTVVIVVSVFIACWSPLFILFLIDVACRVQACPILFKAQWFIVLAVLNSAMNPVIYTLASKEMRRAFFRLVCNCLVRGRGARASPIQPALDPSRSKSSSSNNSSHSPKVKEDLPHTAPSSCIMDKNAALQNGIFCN
T1 sequence (P21453 whole entry): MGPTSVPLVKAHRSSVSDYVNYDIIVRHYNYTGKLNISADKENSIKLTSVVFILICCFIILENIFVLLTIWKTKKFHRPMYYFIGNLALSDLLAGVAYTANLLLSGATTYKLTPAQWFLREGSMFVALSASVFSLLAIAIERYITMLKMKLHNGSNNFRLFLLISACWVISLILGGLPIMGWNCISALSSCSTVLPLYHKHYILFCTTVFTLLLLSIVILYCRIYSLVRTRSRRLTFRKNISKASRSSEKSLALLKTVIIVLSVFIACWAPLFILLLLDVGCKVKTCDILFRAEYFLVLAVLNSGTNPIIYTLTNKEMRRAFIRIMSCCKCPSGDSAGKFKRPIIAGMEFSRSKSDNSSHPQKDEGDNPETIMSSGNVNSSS

SMILES | EC50 (S1PR1) | EC50 (S1PR3) | EC50 (S1PR1; cells printed in μM)
O=C(O)C1CN(Cc2ccc(-c3noc(C4CCCCC4)n3)c3ccccc23)C1 [Compound A39, 1-((4-(5-cyclohexyl-1,2,4-oxadiazol-3-yl)naphthalen-1-yl)methyl) azetidine-3-carboxylic acid hydrochloric acid] | 0.831 µM | > 10 µM | 
CC(C)c1ccc(-c2nc(-c3ccc(CN4CC(C(=O)O)C4)c4ccccc34)no2)cc1 [Compound A20, 1-((4-(5-(4-isopropylphenyl)-1,2,4-oxadiazol-3-yl)naphthalen-1-yl)methyl) azetidine-3-carboxylic acid hydrochloric acid] | 1.05 µM | > 10 µM | 
O=C(O)C1CN(Cc2ccc(-c3noc(-c4ccc(OC(F)(F)F)cc4)n3)c3ccccc23)C1 [Compound A19, 1-((4-(5-(4-(trifluoromethoxy)phenyl)-1,2,4-oxadiazol-3-yl)naphthalen-1-yl)methyl) azetidine-3-carboxylic acid hydrochloric acid] | 1.13 µM | > 10 µM | 
CC(C)Oc1ccc(-c2nc(-c3ccc(CN4CC(C(=O)O)C4)c4ccccc34)no2)cc1Cl [Compound A10, 1-((4-(5-(3-chloro-4-isopropoxyphenyl)-1,2,4-oxadiazol-3-yl)naphthalen-1-yl)methyl) azetidine-3-carboxylic acid hydrochloric acid] | 0.699 µM | > 10 µM | 
O=C(O)C1CN(Cc2ccc(-c3noc(-c4ccc(OCc5ccccc5)cc4)n3)c3ccccc23)C1 [Compound A18, 1-((4-(5-(4-(benzyloxy)phenyl)-1,2,4-oxadiazol-3-yl)naphthalen-1-yl)methyl) azetidine-3-carboxylic acid hydrochloric acid] |  | > 10 µM | > 10 µM
Cn1c(-c2nc(-c3ccc(CN4CC(C(=O)O)C4)c4ccccc34)no2)cc2ccccc21 [Compound A37, 1-((4-(5-(1-methyl-1H-indole-2-yl)-1,2,4-oxadiazol-3-yl)naphthalen-1-yl)methyl) azetidine-3-carboxylic acid hydrochloric acid] |  | > 10 µM | > 10 µM
O=C(O)C1CN(Cc2ccc(-c3noc(-c4cnc5ccccc5c4)n3)c3ccccc23)C1 [Compound A33, 1-((4-(5-(quinolin-3-yl)-1,2,4-oxadiazol-3-yl)naphthalen-1-yl)methyl) azetidine-3-carboxylic acid hydrochloric acid] | 0.933 µM | > 10 µM | 
O=C(O)C1CN(Cc2ccc(-c3noc(-c4cnc5ccccc5n4)n3)c3ccccc23)C1 [Compound A34, 1-((4-(5-(quinoxaline-2-yl)-1,2,4-oxadiazol-3-yl)naphthalen-1-yl)methyl) azetidine-3-carboxylic acid hydrochloric acid] | 0.739 µM | > 10 µM | 
CCCc1ccc(-c2nc(-c3ccc(CN4CC(C(=O)O)C4)c4ccccc34)no2)cc1 [Compound A21, 1-((4-(5-(4-propylphenyl)-1,2,4-oxadiazol-3-yl)naphthalen-1-yl)methyl) azetidine-3-carboxylic acid hydrochloric acid] | 1.27 µM | > 10 µM | 
O=C(O)C1CN(Cc2ccc(-c3noc(-c4ccc(F)cc4)n3)c3ccccc23)C1 [Compound A23, 1-((4-(5-(4-fluorophenyl)-1,2,4-oxadiazol-3-yl)naphthalen-1-yl)methyl) azetidine-3-carboxylic acid hydrochloric acid] | 1.96 µM | > 10 µM | 
COc1cc(-c2nc(-c3ccc(CN4CC(C(=O)O)C4)c4ccccc34)no2)ccc1OC(C)C [Compound A13, 1-((4-(5-(4-isopropoxy-3-methoxyphenyl)-1,2,4-oxadiazol-3-yl)naphthalen-1-yl)methyl) azetidine-3-carboxylic acid hydrochloric acid] | 1.55 µM | > 10 µM | 
O=C(O)C1CN(Cc2ccc(-c3noc(-c4cc5ccccc5[nH]4)n3)c3ccccc23)C1 [Compound A36, 1-((4-(5-(1H-indole-2-yl)-1,2,4-oxadiazol-3-yl)naphthalen-1-yl)methyl) azetidine-3-carboxylic acid hydrochloric acid] | 1.11 µM | > 10 µM | 
O=C(O)C1CN(Cc2ccc(-c3noc(-c4ccncc4)n3)c3ccccc23)C1 [Compound A27, 1-((4-(5-(pyridin-4-yl)-1,2,4-oxadiazol-3-yl)naphthalen-1-yl)methyl) azetidine-3-carboxylic acid hydrochloric acid] |  | > 10 µM | > 10 µM
O=C(O)C1CN(Cc2ccc(-c3noc(-c4ccc5[nH]ccc5c4)n3)c3ccccc23)C1 [Compound A35, 1-((4-(5-(1H-indole-5-yl)-1,2,4-oxadiazol-3-yl)naphthalen-1-yl)methyl) azetidine-3-carboxylic acid hydrochloric acid] | 1.96 µM | > 10 µM | 
O=C(O)C1CN(Cc2ccc(-c3noc(-c4ccccc4)n3)c3ccccc23)C1 [Compound A26, 1-((4-(5-phenyl-1,2,4-oxadiazol-3-yl)naphthalen-1-yl)methyl) azetidine-3-carboxylic acid hydrochloric acid] | 0.749 µM | > 10 µM | 
N#Cc1cccc(-c2nc(-c3ccc(CN4CC(C(=O)O)C4)c4ccccc34)no2)c1 [Compound A24, 1-((4-(5-(3-cyanophenyl)-1,2,4-oxadiazol-3-yl)naphthalen-1-yl)methyl) azetidine-3-carboxylic acid hydrochloric acid] | 0.685 µM | > 10 µM | 
CCCOc1ccc(-c2nc(-c3ccc(CN4CC(C(=O)O)C4)c4ccccc34)no2)cc1 [Compound A17, 1-((4-(5-(4-propoxyphenyl)-1,2,4-oxadiazol-3-yl)naphthalen-1-yl)methyl) azetidine-3-carboxylic acid hydrochloric acid] |  | > 10 µM | > 10 µM
O=C(O)C1CN(Cc2ccc(-c3noc(-c4ccc5c(c4)OCCO5)n3)c3ccccc23)C1 [Compound A32, 1-((4-(5-(2,3-dihydrobenzo[b][1,4]dioxin-6-yl)-1,2,4-oxadiazol-3-yl)naphthalen-1-yl)methyl) azetidine-3-carboxylic acid hydrochloric acid] | 0.617 µM | > 10 µM | 
O=C(O)C1CN(Cc2ccc(-c3noc(-c4ccccn4)n3)c3ccccc23)C1 [Compound A29, 1-((4-(5-(pyridin-2-yl)-1,2,4-oxadiazol-3-yl)naphthalen-1-yl)methyl) azetidine-3-carboxylic acid hydrochloric acid] | 0.993 µM | > 10 µM | 
N#Cc1ccc(-c2nc(-c3ccc(CN4CC(C(=O)O)C4)c4ccccc34)no2)cc1 [Compound A22, 1-((4-(5-(4-cyanophenyl)-1,2,4-oxadiazol-3-yl)naphthalen-1-yl)methyl) azetidine-3-carboxylic acid hydrochloric acid] | 1.13 µM | > 10 µM | 
CC(C)Oc1ccc(-c2nc(-c3ccc(CN4CC(C(=O)O)C4)c4ccccc34)no2)cc1Br [Compound A11, 1-((4-(5-(3-bromo-4-isopropoxyphenyl)-1,2,4-oxadiazol-3-yl)naphthalen-1-yl)methyl) azetidine-3-carboxylic acid hydrochloric acid] | 1.37 µM | > 10 µM | 
CC(C)Oc1ccc(-c2nc(-c3ccc(CN4CC(C(=O)O)C4)c4ccccc34)no2)cc1 [Compound A14, 1-((4-(5-(4-isopropoxyphenyl)-1,2,4-oxadiazol-3-yl)naphthalen-1-yl)methyl) azetidine-3-carboxylic acid hydrochloric acid] | 1.67 µM | > 10 µM | 
O=C(O)C1CN(Cc2ccc(-c3noc(-c4cccnc4)n3)c3ccccc23)C1 [Compound A28, 1-((4-(5-(pyridin-3-yl)-1,2,4-oxadiazol-3-yl)naphthalen-1-yl)methyl) azetidine-3-carboxylic acid hydrochloric acid] | 1.18 µM | > 10 µM | 
CC(C)Oc1ccc(-c2nc(-c3ccc(CN4CC(C(=O)O)C4)c4ccccc34)no2)cc1C(F)(F)F [Compound A12, 1-((4-(5-(4-isopropoxy-3-(trifluoromethyl)phenyl)-1,2,4-oxadiazol-3-yl)naphthalen-1-yl)methyl) azetidine-3-carboxylic acid hydrochloric acid] | 0.358 µM | > 10 µM | 
O=C(O)C1CN(Cc2ccc(-c3noc(-c4cccc(F)c4)n3)c3ccccc23)C1 [Compound A25, 1-((4-(5-(3-fluorophenyl)-1,2,4-oxadiazol-3-yl)naphthalen-1-yl)methyl) azetidine-3-carboxylic acid hydrochloric acid] | 1.06 µM | > 10 µM | 
COc1ccc(-c2nc(-c3ccc(CN4CC(C(=O)O)C4)c4ccccc34)no2)cc1 [Compound A16, 1-((4-(5-(4-methoxyphenyl)-1,2,4-oxadiazol-3-yl)naphthalen-1-yl)methyl) azetidine-3-carboxylic acid hydrochloric acid] | 1.17 µM | > 10 µM | 
